Data reported in article PMC5238430, “Prebiotic galactooligosaccharides activate mucin and pectic galactan utilization pathways in the human gut symbiont Bacteroides thetaiotaomicron” (Scientific Reports, 2017).

Molecular target: T1, BtGH53 (BT_4668), GH53 endo-beta-(1->4)-galactanase (Bacteroides thetaiotaomicron, UniProt Q89YR3)
T1 sequence (Q89YR3 23-353): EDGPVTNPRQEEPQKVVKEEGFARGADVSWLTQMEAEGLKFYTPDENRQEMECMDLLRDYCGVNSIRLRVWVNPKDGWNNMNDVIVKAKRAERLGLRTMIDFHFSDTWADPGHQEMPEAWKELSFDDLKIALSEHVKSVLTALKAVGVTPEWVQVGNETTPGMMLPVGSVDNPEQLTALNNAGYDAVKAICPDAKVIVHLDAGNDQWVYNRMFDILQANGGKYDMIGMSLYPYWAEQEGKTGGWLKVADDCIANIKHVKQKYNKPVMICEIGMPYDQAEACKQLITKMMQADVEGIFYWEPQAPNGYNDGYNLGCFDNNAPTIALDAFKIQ
Assay: TLC and HPAEC-PAD of hydrolysis products
Format: biochemical
Settings: component of purified GOS mixture (TS0903), not tested singly; 20 mM Tris pH 7.5, 150 mM NaCl, 37 °C, 16 h

## OC[C@H]1O[C@@H](O[C@@H]2[C@H](O)[C@@H](O)[C@H](O[C@H]3[C@H](O)[C@@H](O)C(O)O[C@@H]3CO)O[C@@H]2CO)[C@H](O)[C@@H](O)[C@H]1O (stereo partly drawn) [compound 9, β-D-Galp-(1 → 4)-β-D-Galp-(1 → 4)-β-D-Glc]
  TLC and HPAEC-PAD of hydrolysis products: BtGH53 hydrolyzes linear DP3 and higher GOS compounds
